Experiments:
Type in all cases: functional
CCRF-CEM [1] = experiment: Growth inhibition of human CCRF-CEM cells assessed as cell growth at 0.01 uM after 48 hrs by SRB assay relative to control; conditions: read-out: Activity
OVCAR-4 [2] = experiment: Growth inhibition of human OVCAR4 cells assessed as cell growth at 0.01 uM after 48 hrs by SRB assay relative to control; conditions: OVCAR-4, 48 h, read-out: Activity
NCI/ADR-RES = experiment: Growth inhibition of human NCI-ADR-RES cells assessed as cell growth at 0.01 uM after 48 hrs by SRB assay relative to control; conditions: read-out: Activity
A498 = experiment: Growth inhibition of human A498 cells assessed as cell growth at 0.01 uM after 48 hrs by SRB assay relative to control; conditions: A498, 48 h, read-out: Activity
Hs-578T = experiment: Growth inhibition of human Hs 578T cells assessed as cell growth at 0.01 uM after 48 hrs by SRB assay relative to control; conditions: read-out: Activity
BT-549 = experiment: Growth inhibition of human BT549 cells assessed as cell growth at 0.01 uM after 48 hrs by SRB assay relative to control; conditions: BT-549, 48 h, read-out: Activity
CCRF-CEM [3] = experiment: Growth inhibition of human CCRF-CEM cells assessed as cell growth at 0.1 uM after 48 hrs by SRB assay relative to control; conditions: read-out: Activity
RPMI-8226 = experiment: Growth inhibition of human RPMI8226 cells assessed as cell growth at 0.1 uM after 48 hrs by SRB assay relative to control; conditions: RPMI-8226, 48 h, read-out: Activity
SW-620 [4] = experiment: Growth inhibition of human SW620 cells assessed as cell growth at 0.1 uM after 48 hrs by SRB assay relative to control; conditions: SW-620, 48 h, read-out: Activity
SF-539 = experiment: Growth inhibition of human SF539 cells assessed as cell growth at 0.1 uM after 48 hrs by SRB assay relative to control; conditions: SF-539, 48 h, read-out: Activity
M14 [5] = experiment: Growth inhibition of human M14 cells assessed as cell growth at 0.1 uM after 48 hrs by SRB assay relative to control; conditions: M14, 48 h, read-out: Activity
UACC-62 = experiment: Growth inhibition of human UACC62 cells assessed as cell growth at 0.1 uM after 48 hrs by SRB assay relative to control; conditions: UACC-62, 48 h, read-out: Activity
OVCAR-4 [6] = experiment: Growth inhibition of human OVCAR4 cells assessed as cell growth at 0.1 uM after 48 hrs by SRB assay relative to control; conditions: OVCAR-4, 48 h, read-out: Activity
OVCAR-8 = experiment: Growth inhibition of human OVCAR8 cells assessed as cell growth at 0.1 uM after 48 hrs by SRB assay relative to control; conditions: OVCAR-8, 48 h, read-out: Activity
CAKI-1 = experiment: Growth inhibition of human Caki1 cells assessed as cell growth at 0.1 uM after 48 hrs by SRB assay relative to control; conditions: CAKI-1, 48 h, read-out: Activity
K562 = experiment: Growth inhibition of human K562 cells assessed as cell growth at 1 uM after 48 hrs by SRB assay relative to control; conditions: K562, 48 h, read-out: Activity
HCT-15 = experiment: Growth inhibition of human HCT15 cells assessed as cell growth at 1 uM after 48 hrs by SRB assay relative to control; conditions: HCT-15, 48 h, read-out: Activity
MCF7 = experiment: Growth inhibition of human MCF7 cells assessed as cell growth at 1 uM after 48 hrs by SRB assay relative to control; conditions: MCF7, 48 h, read-out: Activity
T47D = experiment: Growth inhibition of human T47D cells assessed as cell growth at 1 uM after 48 hrs by SRB assay relative to control; conditions: read-out: Activity
HCC 2998 = experiment: Growth inhibition of human HCC2998 cells assessed as cell growth at 10 uM after 48 hrs by SRB assay relative to control; conditions: HCC 2998, 48 h, read-out: Activity
Malme-3M [7] = experiment: Growth inhibition of human MALME-3M cells assessed as cell growth at 10 uM after 48 hrs by SRB assay relative to control; conditions: read-out: Activity
M14 [8] = experiment: Growth inhibition of human M14 cells assessed as cell growth at 10 uM after 48 hrs by SRB assay relative to control; conditions: M14, 48 h, read-out: Activity
SK-MEL-5 = experiment: Growth inhibition of human SK-MEL-5 cells assessed as cell growth at 10 uM after 48 hrs by SRB assay relative to control; conditions: SK-MEL-5, 48 h, read-out: Activity
IGROV-1 = experiment: Growth inhibition of human IGROV1 cells assessed as cell growth at 10 uM after 48 hrs by SRB assay relative to control; conditions: IGROV-1, 48 h, read-out: Activity
786-0 = experiment: Growth inhibition of human 786-0 cells assessed as cell growth at 10 uM after 48 hrs by SRB assay relative to control; conditions: 786-0, 48 h, read-out: Activity
DU-145 = experiment: Growth inhibition of human DU145 cells assessed as cell growth at 10 uM after 48 hrs by SRB assay relative to control; conditions: DU-145, 48 h, read-out: Activity
M14 [9] = experiment: Growth inhibition of human M14 cells assessed as cell growth at 100 uM after 48 hrs by SRB assay relative to control; conditions: M14, 48 h, read-out: Activity
SW-620 [10] = experiment: Cytotoxicity against human SW620 cells assessed as growth inhibition after 48 hrs by SRB assay; conditions: SW-620, 48 h
SF-295 = experiment: Cytotoxicity against human SF295 cells assessed as growth inhibition after 48 hrs by SRB assay; conditions: SF-295, 48 h
SNB-75 = experiment: Cytotoxicity against human SNB75 cells assessed as growth inhibition after 48 hrs by SRB assay; conditions: SNB-75, 48 h
Malme-3M [11] = experiment: Cytotoxicity against human MALME-3M cells assessed as growth inhibition after 48 hrs by SRB assay
RXF 393 = experiment: Cytotoxicity against human RXF393 cells assessed as growth inhibition after 48 hrs by SRB assay; conditions: RXF 393, 48 h
[12] = read-out: LC50 (the source's name)
[13] = read-out: pLC50 (the source's name) (converted)

COc1ccc2c(c1)CCc1n[nH]c(-c3cc(OC)c(OC)c(OC)c3)c1-2
growth at 0.01 µM (CCRF-CEM [1]): 38% | growth at 0.01 µM (OVCAR-4 [2]): 41% | growth at 0.01 µM (NCI/ADR-RES): -13% | growth at 0.01 µM (A498): -11% | growth at 0.01 µM (Hs-578T): 14% | growth at 0.01 µM (BT-549): 4% | growth at 0.1 µM (CCRF-CEM [3]): 42% | growth at 0.1 µM (RPMI-8226): 51% | growth at 0.1 µM (SW-620 [4]): 18% | growth at 0.1 µM (SF-539): -6% | growth at 0.1 µM (M14 [5]): 1% | growth at 0.1 µM (UACC-62): 35% | growth at 0.1 µM (OVCAR-4 [6]): 44% | growth at 0.1 µM (OVCAR-8): 13% | growth at 0.1 µM (CAKI-1): 23% | growth at 1 µM (K562): 18% | growth at 1 µM (HCT-15): 4% | growth at 1 µM (MCF7): 12% | growth at 1 µM (T47D): 69% | growth at 10 µM (HCC 2998): 5% | growth at 10 µM (Malme-3M [7]): 41% | growth at 10 µM (M14 [8]): 2% | growth at 10 µM (SK-MEL-5): -21% | growth at 10 µM (IGROV-1): 20% | growth at 10 µM (786-0): 3% | growth at 10 µM (DU-145): 8% | growth at 100 µM (M14 [9]): -66% | GI50 (SW-620 [10]; read-out: GI50): < 0.01 µM | CC50 (SW-620 [10]; [12]): 52.2 µM | TGI (SW-620 [10]; read-out: TGI): 14.5 µM | GI50 (SW-620 [10]; read-out: pGI50 (converted)): < 0.01 µM | CC50 (SW-620 [10]; [13]): 52.5 µM | TGI (SW-620 [10]; read-out: pTGI (converted)): 14.5 µM | GI50 (SF-295; read-out: GI50): < 0.01 µM | CC50 (SF-295; [12]): 64.5 µM | TGI (SF-295; read-out: TGI): 3.21 µM | GI50 (SF-295; read-out: pGI50 (converted)): < 0.01 µM | CC50 (SF-295; [13]): 64.6 µM | TGI (SF-295; read-out: pTGI (converted)): 3.24 µM | GI50 (SNB-75; read-out: GI50): < 0.01 µM | CC50 (SNB-75; [12]): > 100 µM | TGI (SNB-75; read-out: TGI): 26.1 µM | GI50 (SNB-75; read-out: pGI50 (converted)): < 0.01 µM | CC50 (SNB-75; [13]): > 100 µM | TGI (SNB-75; read-out: pTGI (converted)): 26.3 µM | GI50 (Malme-3M [11]; read-out: GI50): < 0.01 µM | CC50 (Malme-3M [11]; [12]): > 100 µM | TGI (Malme-3M [11]; read-out: TGI): 33.9 µM | GI50 (Malme-3M [11]; read-out: pGI50 (converted)): < 0.01 µM | CC50 (Malme-3M [11]; [13]): > 100 µM | TGI (Malme-3M [11]; read-out: pTGI (converted)): 33.9 µM | GI50 (RXF 393; read-out: GI50): < 0.01 µM | CC50 (RXF 393; [12]): 51.3 µM | GI50 (RXF 393; read-out: pGI50 (converted)): < 0.01 µM | CC50 (RXF 393; [13]): 51.3 µM
